From PubChem BioAssay (NCI)
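Compound exposure: 48 hours, 5 concentrations, 96-well plates. GI50 = concentration required for 50% inhibition of growth. The concentration for full growth arrest is given as TGI.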

Key:
Experiment in all cases: DTP human tumour cell line panel, 48 h
[1] = tested on: 786-0 renal
[2] = tested on: A549 NSCLC
[3] = tested on: ACHN renal
[4] = tested on: BT-549 breast
[5] = tested on: CAKI-1 renal
[6] = tested on: CCRF-CEM leukemia
[7] = tested on: COLO 205 colon
[8] = tested on: DU-145 prostate
[9] = tested on: EKVX NSCLC
[10] = tested on: HCC-2998 colon
[11] = tested on: HCT-116 colon
[12] = tested on: HCT-15 colon
[13] = tested on: HL-60(TB) leukemia
[14] = tested on: HOP-62 NSCLC
[15] = tested on: HOP-92 NSCLC
[16] = tested on: HS 578T breast
[17] = tested on: HT29 colon
[18] = tested on: IGROV1 ovarian
[19] = tested on: K-562 leukemia
[20] = tested on: KM12 colon
[21] = tested on: LOX IMVI melanoma
[22] = tested on: M14 melanoma
[23] = tested on: MALME-3M melanoma
[24] = tested on: MCF7 breast
[25] = tested on: MDA-MB-231 breast
[26] = tested on: MOLT-4 leukemia
[27] = tested on: NCI-H226 lung
[28] = tested on: NCI-H23 lung
[29] = tested on: NCI-H460 lung
[30] = tested on: NCI-H522 lung
[31] = tested on: NCI/ADR-RES ovarian
[32] = tested on: OVCAR-3 ovarian
[33] = tested on: OVCAR-4 ovarian
[34] = tested on: OVCAR-5 ovarian
[35] = tested on: OVCAR-8 ovarian
[36] = tested on: PC-3 prostate
[37] = tested on: RPMI-8226 leukemia
[38] = tested on: RXF 393 renal
[39] = tested on: SF-268 CNS
[40] = tested on: SF-295 CNS
[41] = tested on: SF-539 CNS
[42] = tested on: SK-MEL-2 melanoma
[43] = tested on: SK-MEL-28 melanoma
[44] = tested on: SK-MEL-5 melanoma
[45] = tested on: SK-OV-3 ovarian
[46] = tested on: SN12C renal
[47] = tested on: SNB-19 CNS
[48] = tested on: SNB-75 CNS
[49] = tested on: SR leukemia
[50] = tested on: SW-620 colon
[51] = tested on: TK-10 renal
[52] = tested on: U251 CNS
[53] = tested on: UACC-62 melanoma
[54] = tested on: UO-31 renal

CC(=O)O[C@H](C[C@H](C(C)C)N(C)C(=O)[C@@H](NC(=O)[C@H]1CCCCN1C)C(C)(C)C)c1nc(C(=O)N[C@@H](Cc2ccccc2)C[C@H](C)C(=O)O)cs1
GI50 [1]: < 2.5 nM | TGI [1]: > 25000 nM | GI50 [2]: < 2.5 nM | TGI [2]: > 25000 nM | GI50 [3]: < 2.5 nM | TGI [3]: > 25000 nM | GI50 [4]: 3.04 nM | TGI [4]: 64.5 nM | GI50 [5]: < 2.5 nM | TGI [5]: > 25000 nM | GI50 [6]: < 2.5 nM | TGI [6]: > 25000 nM | GI50 [7]: < 2.5 nM | TGI [7]: 5.3 nM | GI50 [8]: < 2.5 nM | GI50 [9]: 4.62 nM | TGI [9]: > 25000 nM | GI50 [10]: < 2.5 nM | TGI [10]: > 8500 nM | GI50 [11]: < 2.5 nM | TGI [11]: > 25000 nM | GI50 [12]: < 2.5 nM | TGI [12]: > 25000 nM | GI50 [13]: < 2.5 nM | TGI [13]: < 2.5 nM | GI50 [14]: < 2.5 nM | TGI [14]: > 25000 nM | GI50 [15]: < 2.5 nM | TGI [15]: 297 nM | GI50 [16]: < 2.5 nM | TGI [16]: > 23600 nM | GI50 [17]: < 2.5 nM | TGI [17]: > 25000 nM | GI50 [18]: 2.94 nM | TGI [18]: > 25000 nM | GI50 [19]: < 2.5 nM | TGI [19]: > 25000 nM | GI50 [20]: < 2.5 nM | GI50 [21]: < 2.5 nM | TGI [21]: > 25000 nM | GI50 [22]: < 2.5 nM | GI50 [23]: < 2.5 nM | TGI [23]: > 25000 nM | GI50 [24]: < 2.5 nM | TGI [24]: > 25000 nM | GI50 [25]: < 2.5 nM | GI50 [26]: < 2.5 nM | TGI [26]: > 25000 nM | GI50 [27]: 34.8 nM | GI50 [28]: < 2.5 nM | TGI [28]: > 25000 nM | GI50 [29]: < 2.5 nM | TGI [29]: > 25000 nM | GI50 [30]: < 2.5 nM | TGI [30]: 8.47 nM | GI50 [31]: 5.24 nM | TGI [31]: > 25000 nM | GI50 [32]: < 2.5 nM | TGI [32]: 4.48 nM | GI50 [33]: 5.25 nM | TGI [33]: > 25000 nM | GI50 [34]: < 2.5 nM | TGI [34]: > 25000 nM | GI50 [35]: < 2.5 nM | TGI [35]: > 25000 nM | GI50 [36]: < 2.5 nM | TGI [36]: > 25000 nM | GI50 [37]: < 2.5 nM | TGI [37]: > 25000 nM | GI50 [38]: < 2.5 nM | TGI [38]: > 25000 nM | GI50 [39]: 4.32 nM | TGI [39]: > 25000 nM | GI50 [40]: < 2.5 nM | TGI [40]: > 8940 nM | GI50 [41]: < 2.5 nM | TGI [41]: 4.6 nM | GI50 [42]: < 2.5 nM | TGI [42]: > 25000 nM | GI50 [43]: 1050 nM | TGI [43]: > 25000 nM | GI50 [44]: < 2.5 nM | TGI [44]: 5.7 nM | GI50 [45]: < 2.5 nM | TGI [45]: > 25000 nM | GI50 [46]: < 2.5 nM | TGI [46]: > 25000 nM | GI50 [47]: < 2.5 nM | TGI [47]: > 25000 nM | GI50 [48]: < 2.5 nM | TGI [48]: > 25000 nM | GI50 [49]: < 2.5 nM | TGI [49]: > 25000 nM | GI50 [50]: < 2.5 nM | TGI [50]: > 25000 nM | GI50 [51]: 9.62 nM | TGI [51]: > 25000 nM | GI50 [52]: < 2.5 nM | TGI [52]: > 25000 nM | GI50 [53]: < 2.5 nM | TGI [53]: > 25000 nM | GI50 [54]: 19.2 nM | TGI [54]: > 25000 nM
